From ChEMBL document CHEMBL1157539, “Thousands of chemical starting points for antimalarial lead identification” (Nature, 2010)

System: Plasmodium falciparum
Experiment: GSK_TCMDC: Inhibition of Plasmodium falciparum 3D7 in whole erythrocytes, using parasite LDH activity as an index of growth.
Type: functional, organism-based
Details: Plasmodium falciparum, 3D7

Row | Compound | XC50 [nM]
1 | COc1ccc2nc(-c3ccccc3)cc(N/N=C/c3ccc([N+](=O)[O-])cc3)c2c1 | 149
2 | CN(Cc1ccc(-c2ccc(C(F)(F)F)cc2)cc1)C(=O)Cn1c(CCc2cccc(F)c2F)nc(=O)c2ccc(N3CCN(CCN4CCCCC4)CC3)nc21 | 764
3 | O=C(Cn1c(CCc2cccc(F)c2F)nc(=O)c2ccccc21)N(CCN1CCCC1)Cc1ccc(-c2ccc(C(F)(F)F)cc2)cc1 | 711
4 | O=C(Nc1ccc(Br)c(C(F)(F)F)c1)c1cccc([N+](=O)[O-])c1 | 914
5 | CCN(CCCN1CCCCC1)c1cc(C)nc(Nc2cc(Br)ccc2C)n1 | 405
6 | Cc1c(-c2ccc(C(=O)NC3CC(C)(C)NC(C)(C)C3)cc2)[nH]c2cc(Cl)c(Cl)cc12 | 751
7 | O=c1nc(NCCCNCc2cc3c(Cl)cc(Cl)cc3[nH]2)[nH]c2ccsc12 | 1120
8 | COc1ccc2nccc([C@@H](O)CN3CCC(NCc4cc5ccc(C#N)cc5[nH]4)CC3)c2c1 | 95
9 | c1cc(CN2CCC(CCN3CCCCC3)CC2)cc(-c2csc(-c3nc4ccccc4[nH]3)c2)c1 | 142
10 | COc1cccc2cc(C(=O)N[C@@H](CC(C)C)C(=O)N[C@H](C=NN3CCOC3=O)Cc3ccccc3)oc12 | 686
11 | CC(C)(C)NC(=O)c1ccc(Oc2ccc(OC(F)(F)F)cc2)c(NC(=O)C(C)(C)C)c1 | 977
12 | CCc1c(CCNCCCCCNCCc2ccc(OC)c(OC)c2CC)ccc(OC)c1OC | 1110
13 | COc1ccc(/C=C/C(=O)N2CCc3cc4nccc(N5CCN6CCC[C@H]6C5)c4cc32)cc1 | 642
14 | O=c1cc(NCCCNCc2cc(C(F)(F)F)ccc2Cl)[nH]c2ccccc12 | 1020
15 | CN1CCN(Cc2ccc(-c3ccc4c(Nc5cc(O)c(Cl)cc5F)ccnc4c3)o2)CC1 | 110
16 | Cc1ccccc1C(=O)Nc1cccc(-c2nc3ncccn3c2C)c1 | 765
17 | CC(C)CN1C(=O)c2ccc(C(=O)Nc3nccs3)cc2C1=O | 971
18 | O=C(Nc1cccc(CN2CCCN(CC3CC3)CC2)c1)c1ccc(-c2ccccc2)cc1 | 930
19 | CN(CCCCNC(=O)c1cc2ccccc2[nH]1)C1CC2(CCN(C(=O)OC(C)(C)C)CC2)c2ccccc21 (stereo not given) | 928
20 | Cc1cc(C(F)(F)F)nn1-c1ccc(NC(=O)c2ccco2)cc1 | 734
21 | O=C(Nc1ccccc1)OCCOc1ccc(CC2SC(=O)NC2=O)cc1 (stereo not given) | 371
22 | C/N=C(/Nc1c(Cl)cccc1Cl)N(C)C | 820
23 | CC(=O)Nc1cccc(C(=O)Nc2ccc(-c3cccc(-c4nc5cc(F)ccc5[nH]4)c3)cc2)c1 | 633
24 | Cc1cc(-c2ccc3c(c2)CCN(CCC2CCC(NC(=O)/C=C/c4cccc(F)c4)CC2)CC3)on1 (stereo not given) | 746

Row | Compound | XC50 [nM]
25 | COc1ccc(CN2C(=S)N(Cc3ccccc3)C(=O)C2CC(=O)Nc2ccccc2)cc1OC (stereo not given) | 844
26 | OCCNc1nc(Nc2cccc(O)c2)nc2ccccc12 | 389
27 | N=C(N)NN=Cc1c[nH]c2ccc(-c3ccccc3)cc12 | 528
28 | O=S(=O)(NCCN1CCCC1)c1ccc(-c2cccc(CNC3Cc4ccccc4C3)c2)s1 | 746
29 | Cc1cc(C)cc(OCC(O)CN(Cc2cc(Cl)cc(Cl)c2)C(=O)Nc2ccccc2Cl)c1 (stereo not given) | 944
30 | COc1ccc2nccc([C@@H](O)CN3CCC(NC(=O)/C=C/c4cccc(NC(C)=O)c4)CC3)c2c1 | 963
31 | COc1ccc2[nH]c(C)cc(=NN=Cc3cc(OC)c(OC)cc3OC)c2c1 | 739
32 | CN1CCN(CCc2ccc3nc(-c4csc(Cc5cc(Cl)ccc5OCc5ccccc5)n4)[nH]c3c2)CC1 | 750
33 | O=C(Nc1ccc(OC2CCN(Cc3ccsc3)C2)c(Cl)c1)c1ccco1 (stereo not given) | 602
34 | Cc1cc(OCCCNc2nc(NCCc3ccc(O)cc3)nc(N3CCNCC3)n2)c(Cl)c(C)c1Cl | 956
35 | COc1ccccc1N(C)CCNc1cc(C)nc(Nc2ccccc2)n1 | 1070
36 | FC(F)(F)c1ccc(-c2ccc(CNC3CCN(CCN4CCOCC4)CC3)cc2)cc1 | 756
37 | CCOc1cc2c(cc1OCC)C(c1cc(OC)c(O)cc1Cl)NCC2 (stereo not given) | 748
38 | O=C(NC1CCCCC1)N(Cc1ccccc1-c1ccc(CNCCc2ccccc2)cc1)C1CCN(Cc2ccccc2)CC1 | 930
39 | O=C1NC(c2ccccc2)C2(CCN(CC(O)COc3cccc4ncccc34)CC2)O1 (stereo not given) | 743
40 | O=C(Nc1ccc(-c2ccccc2)s1)N[C@H]1CCN(Cc2ccc(OCCCN3CCCCC3)cc2)C1 | 742
41 | COc1ccc(Nc2nc(NC3CCCC3)cc(-c3ccc(OC)cc3)n2)cc1 | 1030
42 | CN(C)c1ccc(CN2CCC(CNC(=O)c3cc(-c4ccccc4F)cs3)C2)cc1 (stereo not given) | 911
43 | Cc1ccc(OC2CCN(CCCCC3(C)C(=O)Nc4ccccc43)CC2)cc1 (stereo not given) | 743
44 | COc1ccc(NC(=O)[C@H](CC(C)C)Nc2cc(C)nc(NCc3ccccc3C)n2)cc1 | 888
45 | CN1CCN(CC(=O)Nc2ccc(-c3ccc(-c4nc5cc(C(F)(F)F)ccc5[nH]4)s3)cc2)CC1 | 569
46 | O=C1NC(=O)C(c2ccc(Cl)cc2)=C1Nc1cccc(S(=O)(=O)C(F)(F)F)c1 | 744
47 | Cc1sc(N2CCCCC2)nc1C(=O)Nc1ccc(F)cc1C(F)(F)F | 1150
48 | CCCCN(CCCC)CCCN(CCCN(CCCC)CCCC)c1cc(C)nc(Nc2ccc(Cl)cc2)n1 | 370

Row | Compound | XC50 [nM]
49 | Cc1cc(N[C@@H](Cc2ccccc2)C(=O)NCc2cccs2)nc(NCCc2ccccn2)n1 | 1280
50 | COC(=O)Nc1cc(C(F)(F)F)ccc1N1CCC(CNS(=O)(=O)c2ccc(OC)cc2)CC1 | 249
51 | Cc1noc(-c2ccc3c(c2)CCN(CCC2CCC(NC(=O)c4cc5ccccc5[nH]4)CC2)CC3)n1 (stereo not given) | 689
52 | COc1ccccc1C1CCN(C2CCC(NC(=O)c3cc4ccccc4[nH]3)CC2)CC1 (stereo not given) | 1210
53 | CCN(CC)CCCC(C)Nc1ccnc2ccc(-c3ccccc3)cc12 (stereo not given) | 652
54 | COC(=O)COc1cc(C(=O)NCCCCN2CCC(c3ccc4c(c3OC)CCCC4)CC2)ccc1-c1ccc(Cl)cc1 | 257
55 | CCCN1CCCN(Cc2cccc(NC(=O)c3ccc(-c4ccccc4)cc3)c2)CC1 | 1110
56 | CC(C)N1CCN(C(CN2CCN(CCCOc3ccc4nonc4c3)CC2)c2ccc(F)cc2)CC1 (stereo not given) | 796
57 | Cc1nnsc1C(=O)Nc1cccc(-c2cccc(-c3nc4cccc(C)c4[nH]3)c2)c1 | 267
58 | Cc1cccc2nc(-c3cccc(-c4cccc(NC(=O)c5ccoc5)c4)c3)[nH]c12 | 219
59 | COc1ccc(CNCc2ccc(-c3ccc(-c4nc5cc(F)ccc5[nH]4)cc3)cc2)cc1 | 249
60 | Cc1cc(N2CCCC2)nc(Nc2ccc(NC(=O)COc3ccccc3)cc2)n1 | 647
61 | CC(C)(CNCc1ccc(C(F)(F)F)cc1)c1nc(-c2ccnc(N)n2)c(-c2ccc(Cl)c(O)c2)[nH]1 | 152
62 | Cc1cc2ncn(-c3ccnc(N4CCN(CCCN5CCCC5)CC4)n3)c2cc1C | 828
63 | COc1cc2nc(N3CCC(CNCc4ccc(-c5ccc(C(F)(F)F)cc5)cc4)CC3)nc(N)c2cc1OC | 86.9
64 | CCOc1ccc(Br)cc1/C=C/C(=O)Nc1ccc2c(c1)CCCN(C)C2 | 1050
65 | COc1ccc2nccc([C@@H](O)CN3CCC(NCc4ccc5scnc5c4)CC3)c2c1 | 399
66 | CCCCc1cc(NC2CCN(C)CC2)nc(Nc2ccccc2)n1 | 658
67 | CCc1cn2c3c(cc(C(=O)N[C@@H](Cc4ccccc4)[C@H](O)CNC4CCCCC4)cc13)N(CC)S(=O)(=O)CC2 | 31.4
68 | CCn1c(C)cc(C=C2SC(=Nc3ccccc3)NC2=O)c1C | 680
69 | COCCNCc1cccc(C#Cc2cc3ncnc(Nc4ccc(OCc5cccc(F)c5)c(Cl)c4)c3s2)n1 | 739
70 | Cc1ccc(CNC(=O)[C@H](CC(C)C)Nc2cc(C)nc(NCC3CCCCC3)n2)cc1 | 926
71 | COc1cccc(C(=O)C2CC2CN(C)CC(O)c2cc(C)c(OC)cc2C)c1 (stereo not given) | 1140
72 | C[C@H](Cc1ccc(OCCCOc2ccc(C[C@@H](C)NC[C@H](O)c3cccc(Cl)c3)cc2)cc1)NC[C@H](O)c1cccc(Cl)c1 | 780

Row | Compound | XC50 [nM]
73 | CS(=O)(=O)N1CC2(CCN(CCC(NC(=O)NCc3ccccc3Cl)c3ccc(Cl)c(Cl)c3)CC2)c2ccccc21 (stereo not given) | 1110
74 | CCOC(=O)c1c(NC(NC(=O)c2ccc(C(C)(C)C)cc2)C(Cl)(Cl)Cl)sc2c1CCCC2 (stereo not given) | 809
75 | Cc1cc(N(C)C)nc(Nc2ccc(NC(=O)c3ccc(F)cc3)cc2)n1 | 709
76 | CCCN(CCC)C(=O)c1cc(C(=O)N[C@@H](Cc2ccccc2)[C@H](O)CNC2CC2)cc(N2CCCCS2(=O)=O)c1 | 156
77 | CCOCn1c(-c2ccccc2)cc2c3c(N)nc(N)nc3ccc21 | 186
78 | Nc1nc(N)c2c(ccc3c2ccn3Cc2ccccc2)n1 | 3.2
79 | O=C(/C=C/c1ccc(Cl)c(Cl)c1)NCCCCCCN1CCCN(C(=O)Nc2cc(F)cc(F)c2)CC1 | 708
80 | CC1CCN(CC[C@H]2CCCN2S(=O)(=O)c2cccc(NC(=O)c3cc4ccccc4s3)c2)CC1 | 830
81 | CS(=O)(=O)c1ccc2c(c1)CCN(CCC1CCC(NC(=O)C(=Cc3cccc(C#N)c3)c3ccc(-c4ccccc4)cc3)CC1)CC2 (stereo not given) | 839
82 | Cc1cc(-c2cccc(CNCCc3ccc(Cl)cc3)c2)cnc1N | 1100
83 | Cc1cc(-c2ccc(CNCc3ccc(F)cc3)cc2)ccc1S(=O)(=O)NCCN1CCCC1 | 719
84 | CN1CCN(c2ccnc3ccc(NC(=O)Nc4ccc(Cl)cc4)cc23)CC1 | 112
85 | CC[C@H](C)CNC(=O)c1cncc(-c2ccc(CN(C)C3CCN(C)CC3)cc2)c1 | 987
86 | CN(C)c1cccc2c1nc(-c1ccco1)n2CCNCc1ccccc1 | 814
87 | CCc1cc(-c2onc(C(F)(F)F)c2-c2ccccc2)c(O)cc1OC | 787
88 | COc1cc(NC(=O)c2nn(CCCN3CCC4(CC3)C(=O)NCN4c3ccccc3)cc2-c2ccc(Cl)c(Cl)c2)cc(OC)c1OC | 753
89 | Cc1ccc(C)c(N2CCN(Cc3ccccc3O)CC2)c1 | 940
90 | N#Cc1cccc(NC(=O)c2cccc(S(=O)(=O)NC3CCN(CC4CCCCC4)C3)c2)c1 (stereo not given) | 578
91 | CCN(CC)c1ccc(C=CC(=O)NCCN2CCC(N(C)C3CCCCC3C)CC2)cc1 (stereo not given) | 965
92 | Nc1nccc2ccc(-c3cccc(OCc4ccccc4)c3)cc12 | 289
93 | CC(C)(C)OC(=O)NCc1ccc(Nc2nnc(-c3ccc(OCC(=O)NC[C@@H]4CC[C@H]5C[C@@H]4C5(C)C)c([N+](=O)[O-])c3)o2)cc1 | 911
94 | CCCCCCn1c(Sc2ccc(C#N)c([N+](=O)[O-])c2)nnc1-c1ccc(OC)cc1 | 849
95 | CC(OC(=O)c1ccc(C(=O)NCC2CC2)cc1)C(C)(C)C (stereo not given) | 791
